A short description of data set [1]: Distribution between octanol and aqueous buffer at pH 7.4. The data set is classed as physicochemical. On the procedure: a. Distribution between octanol and aqueous buffer at pH = 7.4 were
determined as described by R. A. Sherrer and S. M. Howard, J. Med. Chem.

Data set [2] has as its system cat cerebrocortical tissue slices. Put plainly: in vitro cat cerebrocortical tissue slice assay (inhibition of HCO3- stimulated swelling). The class given is cell-based. The following applies: Felis catus, 1 h, compounds dissolved as sodium salts, 60 min incubation at 37° C, read-out: I50, concentration giving 50% inhibition of swelling. The text has this: The (1) in vitro cat cerebrocortical tissue slice assay, (2) the in vitro primary rat astrocyte culture assay and (3) the in vivo cat head injury assay. The first assay, the in vitro cat cerebrocortical tissue slice assay has been described by Marshall, L. F.; Shapiro, H. M.; Smith, R. W. In "Seminars in Neurological Surgery: Neural Trauma"; Popp, A. J.; Bourke, R. S.; Nelson, L. R.; Kimelberg, H, K,. Eds.; Raven Press: New York, 1979; p 347, by Bourke, R. S.; Kimelberg, H, K.; Daze, M. A. in Brain Res. 1978, 154, 196, and by Bourke, R. S.; Kimelberg, H. K,; Nelson, L. R. in Brain Res. 1976, 105, 309. This method constitutes a rapid and accurate method of determining the intrinsic chloride inhibitory properties of the compounds of the invention in the target tissue.
Using the in vitro cat cerebrocortical tissue slice assay, described in Example 1, compounds of the present invention can be tested for activity. This test provides the principal in vitro evaluation and consists of a determination of concentration vs. response curve. […]
Following the 60 minute incubation period, tissue slices were separated from incubation medium by filtration, reweighed, and homogenized in 1 N HClO4 (10% w/v) for electrolyte analysis. […] Control slice swelling is expressed as microliters per gram initial preswelling fresh weight. […]

The nature of the next data set: pKa. The data set is classed as physicochemical. The note with it: read-out: pV-a.
Data set [3] can be described thus: Protein binding (bovine serum albumin). The note with it: 4 × 10^-4 M bovine serum albumin. The class given is in vitro ADME. The source says:
b. % Bound using 4 × 10^-4 M bovine serum albumin.

For data set [4], the system named is animals receiving experimental in vivo head injury. The note with it: in vivo head injury assay, J. Med. Chem. 25, 567 (1982); cited from earlier work.
Another data set concerns astroglial edema. The following applies: in vitro assay, J. Med. Chem. 25, 567 (1982); cited from earlier work.
Data set [5] relates to clinical cases of head injury. The following applies: J. Med. Chem. 25, 567 (1982); cited from earlier work.

Each structure is given as a SMILES string.

A word on the logD: it is the decadic logarithm of the distribution of all forms, ionised or not, between an organic phase and buffer at a given pH. Low values mean a more hydrophilic compound, high ones a more lipophilic compound. On to `CCC[C@]12CCC(=O)C=C1c1c(cc(OCC(=O)NS(=O)(=O)CC)c(Cl)c1Cl)C2` [SO2 C2 H5], for which the logD in data set [1] is 1.99. Further, the IC50 in data set [2] was found to be 0.01 µM. The pKa in “pKa” is 4.1.
Usually fraction unbound stands for free concentration divided by total concentration. Turning to `CCC[C@]12CCC(=O)C=C1c1c(cc(OCC(=O)N[C@@H](Cc3ccccc3)C(=O)O)c(Cl)c1Cl)C2`, the unbound share (fraction unbound) in data set [3] is 0.057. In addition, the logD in data set [1] is 2. Further, the pKa in the data set “pKa” came to 4.58.
With `C=C(CC)C(=O)c1ccc(OCC(=O)O)c(Cl)c1Cl` [ethacrynic acid], in data set [4], the activity in vivo result is “exhibited activity”. Also, the activity in vitro entry in the data set on astroglial edema is given as “exhibited activity”. Moreover, the “reduction of mortality in clinical cases of head injury” value in data set [5] was “effective in reducing mortality”.
Regarding `CCC[C@]12CCC(=O)C=C1c1c(cc(OCC(=O)N[C@@H](CO)C(=O)O)c(Cl)c1Cl)C2`, in data set [3], the fraction unbound is 0.024. This molecule also had a logD in data set [1] of 1.91. In the data set “pKa”, the pKa amounted to 4.1.
In data set [3], `CCC[C@]12CCC(=O)C=C1c1c(cc(OCC(=O)NS(C)(=O)=O)c(Cl)c1Cl)C2` [Example 4, R(+)-N-Methylsulfonyl-[(5,6-dichloro-3-oxo-9a-propyl-2,3,9,9a-tetrahydro-1H-fluoren-7-yl)oxy]acetamide] had an unbound share (fraction unbound) of 0.028. The molecule further had a logD in data set [1] of 1.97. Besides, in data set [2], the IC50 is 0.02 µM. Also, in the data set “pKa”, the pKa was found to be 4.25.
In the case of `CCC[C@]12CCC(=O)C=C1c1c(cc(OCC(=O)NC#N)c(Cl)c1Cl)C2` [Example 5, R(+)-N-Cyano-[(5,6-dichloro-3-oxo-9a-propyl-2,3,9,9a-tetrahydro-1H-fluoren-77-yl)oxy]acetamide], in data set [3], the free fraction (fraction unbound) was 0.016. In addition, in data set [1], the logD was 1.99. Moreover, the pKa in “pKa” turned out to be 3.65.
On the same counts, the results for `CCC[C@]12CCC(=O)C=C1c1c(cc(OCC(=O)N[C@@H](Cc3ccc(O)cc3)C(=O)O)c(Cl)c1Cl)C2` are 0.022, 1.99 and 4.12.
For `CCC[C@]12CCC(=O)C=C1c1c(cc(OCC(=O)Nc3nnn[nH]3)c(Cl)c1Cl)C2`, the fraction unbound in data set [3] is 0.019. Besides, the logD in data set [1] was 1.96. In “pKa”, the pKa was determined as 3.78.
The matching figures for `CCC[C@]12CCC(=O)C=C1c1c(cc(OCC(=O)N[C@H](C(=O)O)C(C)C)c(Cl)c1Cl)C2`: 0.03, 2 and 4.6.
On the same counts, the results for `CCC[C@]12CCC(=O)C=C1c1c(cc(OCC(=O)N[C@@H](Cc3c[nH]cn3)C(=O)O)c(Cl)c1Cl)C2` are 0.079, 1.95 and 6.9.

Values taken from patent US4782073A, “Amides of [(5,6-dichloro-3-oxo-9-alpha-substituted-2,3,9,9-alpha-tetrahydrofluoren -7-yl-oxyl]acetic acids, and pharmaceutical compositions thereof” (Merck & Co., Inc., priority 1986, dated 1988).
